Assay results from patent publication US20250333406A1, “SULFONYL CYCLIC DERIVATIVES, AND COMPOSITIONS AND METHODS THEREOF” (Lysoway Therapeutics, Inc., priority 2023, published 2025).

tested on: TFEB; assay: TFEB Nuclear Translocation Assay; assay type: cell-based; conditions: read-out: EC50 of TFEB activation

Row | SMILES | EC50 [nM]
1 | CC(F)(F)c1ccc(S(=O)(=O)n2nc(N3CCN(c4ncc(F)cc4F)CC34CC4)c3c(Cl)cccc32)cc1 [Compound 123, 4-chloro-1-((4-(1,1-difluoroethyl)phenyl)sulfonyl)-3-(7-(3,5-difluoropyridin-2-yl)-4,7-diazaspiro[2.5]octan-4-yl)-1H-indazole] | ≤ 1000
2 | CC(C)S(=O)(=O)c1ccc(S(=O)(=O)n2nc(N3CCN(c4ncc(F)cn4)C[C@H]3C(F)(F)F)c3c(Cl)cccc32)cc1 (single isomer, unassigned) [Compound 69] | ≤ 1000
3 | O=S(=O)(c1ccc(SC(F)(F)F)cc1)n1nc(N2CCN(c3ncc(F)cn3)CC23CC3)c2c(Cl)cccc21 [Compound 118, 4-chloro-3-[7-(5-fluoropyrimidin-2-yl)-4,7-diazaspiro[2.5]octan-4-yl]-1-[4-(trifluoromethylsulfanyl)phenyl]sulfonyl-indazole] | ≤ 1000
4 | CC(C)(C)c1ccc(S(=O)(=O)n2nc(N3CCN(c4ncc(F)cn4)CC34CC4)c3c(Cl)cccc32)cc1 [Compound 94, 1-((4-(tert-butyl)phenyl)sulfonyl)-4-chloro-3-(7-(5-fluoropyrimidin-2-yl)-4,7-diazaspiro [2.5]octan-4-yl)-1H-indazole] | ≤ 1000
5 | CC(C)S(=O)(=O)n1ccc(S(=O)(=O)n2nc(N3CCN(c4ncc(F)cn4)C[C@H]3C)c3c(Cl)cc(F)cc32)c1 [Compound 178, 4-chloro-6-fluoro-3-[(2R)-4-(5-fluoropyrimidin-2-yl)-2-methyl-piperazin-1-yl]-1-(1-isopropylsulfonylpyrrol-3-yl) sulfonyl-indazole] | ≤ 1000
6 | CC(C)S(=O)(=O)n1ccc(S(=O)(=O)n2nc(N3CCN(c4ncc(F)cc4F)CC34CC4)c3c(Cl)ccc(F)c32)c1 [Compound 142, 4-chloro-3-[7-(3,5-difluoro-2-pyridyl)-4,7-diazaspiro [2.5]octan-4-yl]-7-fluoro-1-(1-isopropylsulfonylpyrrol-3-yl) sulfonyl-indazole] | ≤ 1000
7 | CC(C)S(=O)(=O)c1ccc(S(=O)(=O)n2nc(N3CCN(c4ncc(Cl)cn4)CC34CC4)c3c(Cl)cccc32)cc1 [Compound 2, 4-chloro-3-(7-(5-chloropyrimidin-2-yl)-4,7-diazaspiro [2.5]octan-4-yl)-1-((4-(isopropylsulfonyl)phenyl)sulfonyl)-1H-indazole] | ≤ 1000
8 | CC(C)S(=O)(=O)n1ccc(S(=O)(=O)n2nc(N3CCN(c4ncc(F)cn4)CC34CCC4)c3c(Cl)cc(F)cc32)c1 [Compound 179, 4-chloro-6-fluoro-3-(8-(5-fluoropyrimidin-2-yl)-5,8-diazaspiro [3.5]nonan-5-yl)-1-((1-(isopropylsulfonyl)-1H-pyrrol-3-yl)sulfonyl)-1H-indazole] | ≤ 1000
9 | CC(F)(F)c1ccc(S(=O)(=O)n2nc(N3CCN(c4ncc(F)cn4)CC34CC4)c3c(Cl)cc(F)cc32)cc1 [Compound 91, 4-chloro-1-[4-(1,1-difluoroethyl)phenyl]sulfonyl-6-fluoro-3-[7-(5-fluoropyrimidin-2-yl)-4,7-diazaspiro [2.5]octan-4-yl]indazole] | ≤ 1000
10 | CC(C)S(=O)(=O)n1ccc(S(=O)(=O)n2nc(N3CCN(c4ncc(Cl)cc4F)CC34CC4)c3c(Cl)cc(F)cc32)c1 [Compound 150, 4-chloro-3-(7-(5-chloro-3-fluoropyridin-2-yl)-4,7-diazaspiro [2.5]octan-4-yl)-6-fluoro-1-((1-(isopropylsulfonyl)-1H-pyrrol-3-yl)sulfonyl)-1H-indazole] | ≤ 1000
11 | O=S(=O)(c1ccc(C2(F)COC2)cc1)n1nc(N2CCN(c3ncc(F)cn3)CC23CC3)c2c(Cl)cccc21 [Compound 89, 4-chloro-1-[4-(3-fluorooxetan-3-yl)phenyl]sulfonyl-3-[7-(5-fluoropyrimidin-2-yl)-4,7-diazaspiro [2.5]octan-4-yl]indazole] | ≤ 1000
12 | CC(C)S(=O)(=O)n1ccc(S(=O)(=O)n2nc(N3CCN(c4ncc(F)cn4)CC34CC4)c3c(Cl)cccc32)c1 [Compound 111, 4-chloro-3-[7-(5-fluoropyrimidin-2-yl)-4,7-diazaspiro [2.5]octan-4-yl]-1-(1-isopropylsulfonylpyrrol-3-yl) sulfonyl-indazole] | ≤ 1000
13 | CC(F)(F)c1ccc(S(=O)(=O)n2nc(N3CCN(C(=O)F)CC34CC4)c3c(Cl)cccc32)cc1 [Compound 127, 4-(4-chloro-1-((4-(1,1-difluoroethyl)phenyl)sulfonyl)-1H-indazol-3-yl)-4,7-diazaspiro [2.5]octane-7-carbonyl fluoride] | ≤ 1000
14 | CC(C)S(=O)(=O)c1ccc(S(=O)(=O)n2nc(N3CCC(N(C)C)CC34CC4)c3c(Cl)cccc32)s1 (stereo not drawn) [Compound 13, 4-[4-chloro-1-[(5-isopropylsulfonyl-2-thienyl)sulfonyl]indazol-3-yl]-N, N-dimethyl-4-azaspiro [2.5]octan-7-amine] | ≤ 1000
15 | CC(C)S(=O)(=O)c1ccc(S(=O)(=O)n2nc(N3CCC[C@H]3C(F)(F)F)c3c(Cl)cccc32)cc1 (single isomer, unassigned) [Compound 110] | ≤ 1000
16 | CC(C)S(=O)(=O)c1ccc(S(=O)(=O)n2nc(N3CCN(c4ncc(F)cn4)CC3C3CC3)c3c(Cl)cccc32)cc1 (stereo not drawn) [Compound 50, 4-chloro-3-(2-cyclopropyl-4-(5-fluoropyrimidin-2-yl)piperazin-1-yl)-1-((4-(isopropylsulfonyl)phenyl)sulfonyl)-1H-indazole] | ≤ 1000
17 | O=S(=O)(n1nc(N2CCN(c3ncc(F)cn3)CC23CC3)c2c(Cl)cccc21)C12CC(C(F)(F)F)(C1)C2 [Compound 131, 4-chloro-3-[7-(5-fluoropyrimidin-2-yl)-4,7-diazaspiro [2.5]octan-4-yl]-1-[[3-(trifluoromethyl)-1-bicyclo [1.1.1]pentanyl]sulfonyl]indazole] | ≥ 10000
18 | CC(C)S(=O)(=O)c1ccc(S(=O)(=O)n2nc(N3CCN(c4ncc(F)cc4F)CC34CC4)c3c(F)cc(F)cc32)s1 [Compound 40, 3-(7-(3,5-difluoropyridin-2-yl)-4,7-diazaspiro [2.5]octan-4-yl)-4,6-difluoro-1-((5-(isopropylsulfonyl)thiophen-2-yl)sulfonyl)-1H-indazole] | ≤ 1000
19 | CN(C)S(=O)(=O)n1ccc(S(=O)(=O)n2nc(N3CCN(c4ncc(F)cn4)CC34CC4)c3c(Cl)cc(F)cc32)c1 [Compound 170, 3-[4-chloro-6-fluoro-3-[7-(5-fluoropyrimidin-2-yl)-4,7-diazaspiro [2.5]octan-4-yl]indazol-1-yl]sulfonyl-N, N-dimethyl-pyrrole-1-sulfonamide] | ≤ 1000
20 | O=S(=O)(c1ccn(S(=O)(=O)C2CC2)c1)n1nc(N2CCN(c3ncc(F)cc3F)CC23CC3)c2c(Cl)ccc(F)c21 [Compound 143, 4-chloro-1-((1-(cyclopropylsulfonyl)-1H-pyrrol-3-yl)sulfonyl)-3-(7-(3,5-difluoropyridin-2-yl)-4,7-diazaspiro [2.5]octan-4-yl)-7-fluoro-1H-indazole] | ≤ 1000
21 | CC(F)(F)c1ccc(S(=O)(=O)n2nc(N3CCN(c4ncc(F)cn4)CC3C(C)(C)F)c3c(Cl)cccc32)cc1 (stereo not drawn) [Compound 105, 4-chloro-1-((4-(1,1-difluoroethyl)phenyl)sulfonyl)-3-(2-(2-fluoropropan-2-yl)-4-(5-fluoropyrimidin-2-yl)piperazin-1-yl)-1H-indazole] | ≤ 1000
